According to ChEMBL document CHEMBL1201862, “PubChem BioAssay data set” (2004):
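Briefly, cells in 96-well plates were exposed to five compound concentrations for 48 h, and endpoints were estimated by linear interpolation. The concentration for 50% growth inhibition is given as GI50.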 Calls of active or inactive are those of the source. Rule as the data show it: active = GI50 up to about 1.1 µM and inactive = higher.

What was measured:
Experiment in all cases: DTP human tumour cell line panel, 48 h
A498 = tested on: A498
A549 = tested on: A549
CAKI-1 = tested on: CAKI-1
HCT-15 = tested on: HCT-15
HOP-62 = tested on: HOP-62
HOP-92 = tested on: HOP-92
IGROV-1 = tested on: IGROV-1
LOX IMVI = tested on: LOX IMVI
MCF7 = tested on: MCF7
MDA-MB-435 = tested on: MDA-MB-435
NCI-H522 = tested on: NCI-H522
NCI/ADR-RES = tested on: NCI/ADR-RES
OVCAR-5 = tested on: OVCAR-5
RPMI-8226 = tested on: RPMI-8226
RXF 393 = tested on: RXF 393
SF-268 = tested on: SF-268
SF-539 = tested on: SF-539
UACC-257 = tested on: UACC-257
UACC-62 = tested on: UACC-62
DU-145 = tested on: DU-145

With `N#CCCN(CCN(C(=O)Nc1ccccc1)c1ccccc1)C(=O)Nc1ccccc1` the GI50 (A498) was > 100 µM (inactive), the GI50 (A549) was 58.2 µM (inactive) and the GI50 (CAKI-1) was > 43 µM (inactive). The GI50 (HCT-15) was over 81.5 µM, the GI50 (HOP-62) was > 100 µM (inactive) and the GI50 (HOP-92) was > 63 µM (inactive). The GI50 (IGROV-1) was 76.7 µM (inactive), the GI50 (LOX IMVI) was 49.8 µM (inactive) and the GI50 (MCF7) was > 71.1 µM (inactive). For the same molecule, the GI50 (MDA-MB-435) was 63.8 µM (inactive), the GI50 (NCI-H522) was > 55.3 µM (inactive) and the GI50 (NCI/ADR-RES) was 28.6 µM (inactive). For the same molecule, the GI50 (OVCAR-5) was > 100 µM (inactive), the GI50 (RPMI-8226) was 17.6 µM (inactive) and the GI50 (RXF 393) was > 45.3 µM (inactive). The GI50 (SF-268) was > 100 µM (inactive), the GI50 (SF-539) was > 65 µM (inactive) and the GI50 (UACC-257) was > 100 µM (inactive). The GI50 (UACC-62) was 65 µM (inactive).
With `Cc1ccc(S(=O)(=O)Oc2nc3ccccc3nc2N(S(=O)(=O)c2ccc(C)cc2)S(=O)(=O)c2ccc(C)cc2)cc1` the GI50 (A498) was 89.9 µM (inactive), the GI50 (A549) was 85.1 µM (inactive) and the GI50 (CAKI-1) was 72.4 µM (inactive). The GI50 (DU-145) was 53.8 µM (inactive), the GI50 (HCT-15) was 31 µM and the GI50 (IGROV-1) was 92.3 µM (inactive). For the same molecule, the GI50 (LOX IMVI) was > 100 µM (inactive), the GI50 (MCF7) was 84.1 µM (inactive) and the GI50 (MDA-MB-435) was 35.8 µM (inactive). For the same molecule, the GI50 (NCI-H522) was 74 µM (inactive), the GI50 (NCI/ADR-RES) was 40.2 µM (inactive) and the GI50 (OVCAR-5) was 33 µM (inactive). The GI50 (RPMI-8226) was 32.1 µM (inactive), the GI50 (RXF 393) was 76.4 µM (inactive) and the GI50 (SF-268) was 50.6 µM (inactive). The GI50 (SF-539) was 29 µM (inactive), the GI50 (UACC-257) was 61.1 µM (inactive) and the GI50 (UACC-62) was 56.5 µM (inactive).
In the case of `C=C(C)c1nc(C#N)c(N)o1`, the GI50 (A549) is reported as > 100 µM (inactive), the GI50 (CAKI-1) is reported as > 100 µM (inactive) and the GI50 (DU-145) is reported as > 100 µM (inactive). The GI50 (HCT-15) was over 100 µM, the GI50 (HOP-62) was > 100 µM (inactive) and the GI50 (IGROV-1) was 36.3 µM (inactive). For the same molecule, the GI50 (LOX IMVI) was > 100 µM (inactive), the GI50 (MCF7) was > 100 µM (inactive) and the GI50 (MDA-MB-435) was > 100 µM (inactive). The GI50 (NCI/ADR-RES) was > 100 µM (inactive), the GI50 (OVCAR-5) was > 100 µM (inactive) and the GI50 (RPMI-8226) was > 100 µM (inactive). For the same molecule, the GI50 (RXF 393) was > 100 µM (inactive), the GI50 (SF-268) was > 100 µM (inactive) and the GI50 (SF-539) was > 100 µM (inactive). For the same molecule, the GI50 (UACC-257) was > 100 µM (inactive).
In the case of `Cc1ccc(-c2n[nH]c(=O)n2N2C(=O)C=CC2=O)cc1`, the GI50 (A498) is reported as > 100 µM (inactive), the GI50 (A549) is reported as > 100 µM (inactive) and the GI50 (CAKI-1) is reported as > 100 µM (inactive). The GI50 (DU-145) was > 100 µM (inactive), the GI50 (HCT-15) was over 100 µM and the GI50 (HOP-62) was > 100 µM (inactive). The GI50 (IGROV-1) was > 100 µM (inactive), the GI50 (MCF7) was > 100 µM (inactive) and the GI50 (MDA-MB-435) was > 100 µM (inactive). The GI50 (NCI-H522) was > 100 µM (inactive), the GI50 (NCI/ADR-RES) was > 100 µM (inactive) and the GI50 (OVCAR-5) was > 100 µM (inactive). The GI50 (RXF 393) was > 100 µM (inactive), the GI50 (SF-268) was > 100 µM (inactive) and the GI50 (SF-539) was > 100 µM (inactive). For the same molecule, the GI50 (UACC-257) was > 100 µM (inactive) and the GI50 (UACC-62) was > 100 µM (inactive).
In the case of `CC[N+]1(C)CCC(O)(c2ccc(Cl)c(Cl)c2)C(C(=O)c2ccc(Cl)c(Cl)c2)C1` (stereo not drawn), the GI50 (A498) is reported as > 10 µM (inactive), the GI50 (A549) is reported as > 10 µM (inactive) and the GI50 (CAKI-1) is reported as > 10 µM (inactive). For the same molecule, the GI50 (DU-145) was > 10 µM (inactive), the GI50 (HCT-15) was over 10 µM and the GI50 (HOP-62) was > 10 µM (inactive). The GI50 (HOP-92) was > 10 µM (inactive), the GI50 (IGROV-1) was > 10 µM (inactive) and the GI50 (LOX IMVI) was > 10 µM (inactive). The GI50 (MCF7) was > 10 µM (inactive), the GI50 (NCI-H522) was 3.08 µM (inactive) and the GI50 (NCI/ADR-RES) was > 10 µM (inactive). For the same molecule, the GI50 (OVCAR-5) was > 10 µM (inactive), the GI50 (RPMI-8226) was > 10 µM (inactive) and the GI50 (RXF 393) was > 10 µM (inactive). The GI50 (SF-268) was > 10 µM (inactive), the GI50 (SF-539) was > 10 µM (inactive) and the GI50 (UACC-257) was > 10 µM (inactive).
`COc1ccc(/C=N/n2c(Cc3ccccc3)n[nH]c2=O)cc1` was tested, and the GI50 (A498) was 32.4 µM (inactive), the GI50 (A549) was > 100 µM (inactive) and the GI50 (CAKI-1) was > 100 µM (inactive). The GI50 (DU-145) was > 100 µM (inactive), the GI50 (HCT-15) was over 100 µM and the GI50 (HOP-62) was 69.3 µM (inactive). For the same molecule, the GI50 (MCF7) was > 100 µM (inactive), the GI50 (MDA-MB-435) was > 100 µM (inactive) and the GI50 (NCI/ADR-RES) was > 100 µM (inactive). The GI50 (OVCAR-5) was > 100 µM (inactive), the GI50 (RPMI-8226) was > 100 µM (inactive) and the GI50 (SF-268) was 42.3 µM (inactive). The GI50 (SF-539) was > 100 µM (inactive), the GI50 (UACC-257) was > 100 µM (inactive) and the GI50 (UACC-62) was > 100 µM (inactive).
